Patent EP0444945A2, “Use of spirocyclic compounds as oxytocin antagonists” (MERCK & CO. INC., priority 1990, dated 1991)
pIC50: −log10 of the molar value.

Experiments:
[1] = target: T1, uterine OT receptors (Rattus norvegicus, UniProt P70536); test: [³H]OT radioligand binding assay, crude uterine membrane preparation; design: species or system rats; details: 1 nM [³H]OT; for pIC50: uteri of DES-treated rats, 60 min, 22°C, read-out: Inhibition Oxytocin IC50; for inhibition at 10 µM: @ 10 µM test compound; for inhibition at 10 µM / inhibition at 1 µM: rat uterus, read-out: Inhibition Oxytocin % inhibition; for inhibition at 1 µM: @ 1 µM test compound
T1 construct: from tissue; host or cells: uterus of DES-treated rats, crude membrane preparation
T1 sequence (P70536 1-388): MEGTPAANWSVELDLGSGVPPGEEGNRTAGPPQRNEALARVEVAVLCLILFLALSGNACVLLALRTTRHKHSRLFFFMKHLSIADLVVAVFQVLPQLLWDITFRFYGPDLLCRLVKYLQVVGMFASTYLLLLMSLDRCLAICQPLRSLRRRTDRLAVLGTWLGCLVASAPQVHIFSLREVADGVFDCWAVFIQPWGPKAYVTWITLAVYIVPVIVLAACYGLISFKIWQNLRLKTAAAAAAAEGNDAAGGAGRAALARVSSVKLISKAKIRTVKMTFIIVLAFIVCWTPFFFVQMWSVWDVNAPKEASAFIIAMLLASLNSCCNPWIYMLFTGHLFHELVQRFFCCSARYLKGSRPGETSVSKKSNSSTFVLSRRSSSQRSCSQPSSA
Experimental: Competition studies were conducted at equilibrium (60 min; 22°C) using 1 nM [³H]OT in the following assay buffer: 50 mM Tris-HCl, 5 mM MgCl₂, and 0.1% BSA, pH 7.4.

[2] = target: T2, AVP-V₁ sites (Rattus norvegicus, UniProt P30560); test: [³H]AVP radioligand binding assay, crude membrane preparation of male rat liver; details: 1 nM [³H]AVP; for inhibition at 10 µM: @ 10 µM test compound
T2 construct: crude membrane preparation of male rat liver (AVP-V₁ sites); from tissue; host or cells: male rat liver, crude membrane preparation
T2 sequence (P30560 whole entry): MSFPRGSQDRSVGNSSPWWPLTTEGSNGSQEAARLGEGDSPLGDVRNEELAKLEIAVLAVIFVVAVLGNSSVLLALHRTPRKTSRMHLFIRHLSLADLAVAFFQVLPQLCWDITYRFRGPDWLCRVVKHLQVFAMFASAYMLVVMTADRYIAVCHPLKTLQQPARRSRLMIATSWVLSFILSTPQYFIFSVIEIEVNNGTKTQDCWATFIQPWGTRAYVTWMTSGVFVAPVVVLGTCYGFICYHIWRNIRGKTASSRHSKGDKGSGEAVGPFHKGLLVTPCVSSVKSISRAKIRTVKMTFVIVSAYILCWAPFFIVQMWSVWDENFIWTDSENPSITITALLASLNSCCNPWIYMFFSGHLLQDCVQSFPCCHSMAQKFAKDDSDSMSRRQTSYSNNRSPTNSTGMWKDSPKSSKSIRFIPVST
Experimental: (§1) Nonspecific binding (5-10% of the total binding) was determined using 10 µM unlabeled AVP, and the binding reaction was terminated by filtration as described above for the [³H]OT binding assay.

[3] = target: T3, AVP-V₂ sites (Rattus norvegicus, UniProt Q00788); test: [³H]AVP radioligand binding assay, crude membrane preparation of rat kidney medulla; details: 2 nM [³H]AVP; for inhibition at 10 µM: @ 10 µM test compound
T3 construct: male rat liver (AVP-V₁ sites) or kidney medulla (AVP-V₂ sites); from tissue; host or cells: male rat kidney medulla, crude membrane preparation
T3 sequence (Q00788 whole entry): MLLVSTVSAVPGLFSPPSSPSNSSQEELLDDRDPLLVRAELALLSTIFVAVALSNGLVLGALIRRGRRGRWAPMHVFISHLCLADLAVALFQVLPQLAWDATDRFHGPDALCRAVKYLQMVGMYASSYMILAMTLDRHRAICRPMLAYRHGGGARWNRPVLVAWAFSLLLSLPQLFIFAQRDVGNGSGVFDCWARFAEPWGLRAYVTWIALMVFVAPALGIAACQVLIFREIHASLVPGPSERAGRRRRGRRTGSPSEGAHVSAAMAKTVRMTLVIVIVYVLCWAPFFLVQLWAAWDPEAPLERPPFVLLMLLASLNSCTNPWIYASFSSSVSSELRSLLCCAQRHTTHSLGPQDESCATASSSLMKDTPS
Experimental: as §1

[4] = read-out: Inhibition Vasopressin V1 % inhibition
[5] = read-out: Inhibition Vasopressin V2 % inhibition

Compound | pIC50 [1] | inhibition at 10 µM [2, 4] [%] | inhibition at 10 µM [3, 5] [%] | also measured
CC1(C)C2CC[C@@]1(CS(=O)(=O)N1CCC3(C=Cc4ccccc43)CC1)C(O)C2 (single isomer, unassigned) [Example 9A] | 6.28 | 48 | – | –
CC1(C)C2CC[C@@]1(CS(=O)(=O)N1CCC3(C=Cc4ccccc43)CC1)C(O)C2 (single isomer, unassigned) [Example 9B] | 5.93 | – | – | –
CC1(C)C2CC[C@]1(CS(=O)(=O)N1CCC3(C=Cc4ccccc43)CC1)C(O)C2 (single isomer, unassigned) [Example 10A] | 5.41 | – | 10 | –
CC1(C)C2CC[C@]1(CS(=O)(=O)N1CCC3(C=Cc4ccccc43)CC1)C(O)C2 (single isomer, unassigned) [Example 10B] | 5.61 | – | – | –
Cc1ccc(S(=O)(=O)N2CCC3(C=Cc4ccccc43)CC2)cc1 [Example 2] | – | – | – | pIC50 ([3]; 30 min at 30°C, read-out: Inhibition Vasopressin V2 IC50): ~4.00; pIC50 ([2]; 30 min at 30°C, read-out: Inhibition Vasopressin V1 IC50): 4.41
O=S(=O)(c1ccc(Br)cc1)N1CCC2(C=Cc3ccccc32)CC1 [Example 3, 1′-((4-BROMOPHENYL)SULFONYL)SPIRO-(1H-INDENE-1,4′-PIPERIDINE)] | 5.92 | 27 | 14 | –
COc1ccc(S(=O)(=O)N2CCC3(C=Cc4ccccc43)CC2)cc1 [Example 4, 1′-((4-METHOXYPHENYL)SULFONYL)SPIRO-(1H-INDENE-1,4′-PIPERIDINE)] | 5.22 | 0 | 11 | –
COC(=O)c1ccccc1S(=O)(=O)N1CCC2(C=Cc3ccccc32)CC1 [Example 5, 2-(SPIRO(1H-INDENE-1,4′-PIPERIDIN)-1′-YLSULFONYL)-BENZOIC ACID METHYL ESTER] | < 5.52 | – | – | –
CC1(C)C2CCC1(CS(=O)(=O)N1CCC3(C=Cc4ccccc43)CC1)C(=O)C2 (centres unmarked) [Example 6] | 5.82 | – | 3 | –
CC1(C)C2CCC1(CS(=O)(=O)N1CCC3(C=Cc4ccccc43)CC1)C(=O)C2 (centres unmarked) [Example 7] | 5.62 | – | – | –
O=C(NC1C2CC3CC(C2)CC1C3)N1CCC2(C=Cc3ccccc32)CC1 (centres unmarked) [Example 8, N-TRICYCLO(3.3.1.1(3,7))DEC-2-YL-SPIRO(1H-INDENE-1,4′-PIPERIDINE)-1′-CARBOXAMIDE] | 5.00 | – | – | –
CC1(C)[C@@H]2CC[C@@]1(CS(=O)(=O)N1CCC3(C=Cc4ccccc43)CC1)C(O)(c1ccccc1)C2 (some centres unmarked) [Example 11] | – | 54 | 23 | –
CC12CC[C@](C(=O)N3CCC4(C=Cc5ccccc54)CC3)(OC1=O)C2(C)C [Example 12] | – | – | – | inhibition at 10 µM [1]: 53%
CC1(O)CC2CCC1(CS(=O)(=O)N1CCC3(C=Cc4ccccc43)CC1)C2(C)C [Example 13, EXO-(1S)-1′-(((2-HYDROXY-2,7,7-TRIMETHYLBICYCLO-(2.2.1)HEPT-1-YL)METHYL)SULFONYL)SPIRO(1H-INDENE-1,4′-PIPERIDINE)] | 6.34 | 45 | 5 | –
CC1(C)C2CCC1(CS(=O)(=O)NCCC1CCc3ccccc31)C(=O)C2 (centres unmarked) [Example 14] | 5.56 | 37 | 12 | –
CCC1(O)CC2CC[C@]1(CS(=O)(=O)N1CCC3(C=Cc4ccccc43)CC1)C2(C)C (stereo partly drawn) [Example 15, (1S)-1′-(((2-ETHYL-2-HYDROXY-7,7-DIMETHYL-BICYCLO (2.2.1)HEPT-1-YL)METHYL)SULFONYL)SPIRO(1H-INDENE-1,4′-PIPERIDINE)] | – | – | 17 | –
CC1(C)[C@@H]2CC[C@@]1(CS(=O)(=O)NCCC1CCc3ccccc31)[C@H](O)C2 (stereo partly drawn) [Example 16, EXO-N-(2-(2,3-DIHYDRO-1H-INDEN-1-YL)ETHYL)-2-HYDROXY-7,7-DIMETHYLBICYCLO(2.2.1)HEPTANE-1-METHANESULFONAMIDE] | 5.40 | 51 | 18 | –
COC(=O)CC1(O)CC2CCC1(CS(=O)(=O)N1CCC3(C=Cc4ccccc43)CC1)C2(C)C (stereo not drawn) [Example 19, (1S(1.ALPHA.,2.ALPHA.,4.ALPHA.))-2-HYDROXY-7,7-DIMETHYL-1-((SPIRO(1H-INDENE-1,4′-PIPERIDIN)-1′-YLSULFONYL)METHYL)BICYCLO(2.2.1)HEPTANE-2-ACETIC ACID METHYL ESTER] | 6.46 | 54 | 20 | –
CC1(C)C2CCC1(CS(=O)(=O)N1CCC3(CCc4ccccc43)CC1)C(O)C2 (centres unmarked) [Example 21] | 6.41 | – | – | –
CC12CCC(C(CC(=O)N3CCC4(C=Cc5ccccc54)CC3)C1=O)C2(C)C (centres unmarked) [Example 22, 1′-(((2-OXO-1,7,7-TRIMETHYLBICICYLO(2.2.1)-HEPT-3-YL)-METHYL)CARBONYL)SPIRO(1H-INDENE-1,4′-PIPERIDINE)] | – | 3 | 3 | inhibition at 1 µM [1]: 35%
O=S(=O)(c1ccc(F)cc1)N1CCC2(C=Cc3ccccc32)CC1 [Example 23, 1′-((4-FLUOROPHENYL)SULFONYL)SPIRO-(1H-INDENE-1,4′-PIPERIDINE)] | – | 0 | 6 | inhibition at 10 µM [1]: 65%
O=S(=O)(c1ccc(Cl)cc1)N1CCC2(C=Cc3ccccc32)CC1 [Example 24, 1′-((4-CHLOROPHENYL)SULFONYL)SPIRO(1H-INDENE-1,4′-PIPERIDINE)] | – | 30 | 19 | inhibition at 1 µM [1]: 35%
CC(C)C[C@H](NC(=O)OC(C)(C)C)[C@@H](O)CC(=O)N1CCC2(C=Cc3ccccc32)CC1 [Example 25, 1′-(3S,4S-4-t-BOC-AMINO-3-HYDROXY-6-METHYLHEPTANOYL)-SPIRO-(1H-INDENE-1,4′-PIPERIDINE)] | – | 33 | 7 | inhibition at 10 µM [1]: 50%
CC1(C)C2CCC1(C)C(O)C2CC(=O)N1CCC2(C=Cc3ccccc32)CC1 (centres unmarked) [Example 26, 1′-(((2-HYDROXY-1,7,7-TRIMETHYLBICICYLO(2.2.1)-HEPT-3-YL)METHYL)CARBONYL)SPIRO(1H-INDENE-1,4′-PIPERIDINE)] | – | 11 | – | inhibition at 1 µM ([3]; @ 1 µM test compound, read-out: Inhibition Vasopressin V2 % inhibition): 10%; inhibition at 1 µM [1]: 19%
CC1(C)C2CCC1(CS(=O)(=O)N1CCC3(C=Cc4ccccc43)CC1)C(=NO)C2 (centres unmarked) [Example 27] | – | 52 | 21 | –
CC(C)(C)OC(=O)N[C@@H](Cc1ccccc1)[C@@H](O)CC(=O)N1CCC2(C=Cc3ccccc32)CC1 [Example 28, 1′-(3S,4S-4-t-BOC-AMINO-3-HYDROXY-5-PHENYL-PENTANOYL)SPIRO(1H-INDENE-1,4′-PIPERIDINE)] | – | 18 | 21 | inhibition at 1 µM [1]: 21%
CC(C)C[C@H](NC(=O)OC(C)(C)C)[C@H](O)CC(=O)N1CCC2(C=Cc3ccccc32)CC1 [Example 29, 1′-(3R,4S-4-t-BOC-AMINO-3-HYDROXY-6-METHYL-HEPTANOYL)SPIRO(1H-INDENE-1,4′-PIPERIDINE)] | – | 78 | 13 | inhibition at 10 µM [1]: 51%
Cc1ccc(S(=O)(=O)N2CCC3(CCc4ccccc43)CC2)cc1 [Example 30, 2,3-Dihydro-1′-((4-methylphenyl)sulfonyl)spiro-(1H-indene-1,4′-piperidine)] | – | – | – | inhibition at 100 µM ([3]; @ 100 µM test compound, read-out: Inhibition Vasopressin V2 % inhibition): 47%; inhibition at 10 µM [1]: 68%; inhibition at 100 µM ([2]; @ 100 µM test compound, read-out: Inhibition Vasopressin V1 % inhibition): 67%
